Source: patent US4786755A, “Diphenic acid monoamides” (Warner-Lambert Company, priority 1986, dated 1988)
Read-outs that look alike come from different tables or passages of the source.

Test system: Human Basophils
Assay: Histamine Release from Human Basophils (HHB)
Format: cell-based
Settings: for inhibition at 33 µM: Homo sapiens, 33 μM cpd.
Description: Histamine Release from Human Basophils (HHB) Procedure for Quantitating Active Histamine Release, and its Inhibition by Drugs, from Basophils of Human Blood Using an Automated Fluorometric Histamine Assay
Mediator (histamine) release from human blood basophils is an assay which provides a model for evaluating potential antiallergy (mediator release inhibitors) compounds.
Blood from allergic donors is obtained from volunteers through the Community Research Clinic. The leukocytes are removed after Hespan® sedimentation, washed and concentrated using calcium and magnesium free Hepes buffered saline and resuspended in Hepes Hepes buffered saline with 1 mM calcium and magnesium added back. The cells are incubated briefly at room temperature with either buffer alone (for measuring spontaneous release and challenge agent stimulated release) 6% perchloric acid (for measuring total available histamine in the cells) or drug at various concentrations. The cells are then either treated with buffer alone (to measure control spontaneous and drug effect on spontaneous release) or appropriate challenge agent (e.g., anti-IgE, antigen) mixed and incubated for 45 minutes at 37° C. in a shaking water bath. The reaction is stopped by centrifugation and the supernate is poured into autoanalyzer sample cups and samples assayed for assayed for histamine content using an automated fluorometric assay. By comparing the histamine release of drug-treated cells and the challenge agent controls, drug inhibition of mediator (histamine) release can be evaluated.
Histamine release is induced by (1) an aqueous antigen extract (short rageweed or house dust), or (2) anti-IgE antisera. Whole human blood is obtained from volunteers through the Community Research Clinic (CRC-92). Volunteers are chosen on the basis of adequate histamine release induced by antigen, or antiIgE antisera challenge. Leukocytes are incubated in vitro with the challenge agents at several concentrations. Dose-response curves for each volunteer, using each challenge agent, are generated. Test compounds are evaluated for inhibition of a near maximal response to one or more challenge agents. By including appropriate controls, it is possble to measure the effect of the test compound, at various concentrations, in several ways: (1) the effect of the compound on histamine release for each challenge agent; (2) the effect of the test compound on spontaneous release of histamine in the absence of the challenge agent (buffer alone); and (3) the effect of the test compound on the histamine assay.
Histamine is assayed using an automated continuous flow system which quantitates samples of 0.4 ml or more in volume, and concentrations of approximately 0.5 ng/ml or more. The rate of analysis is 30 samples/hour.
Methods of preparing leukocytes for this assay are described by Theuson, et al, J. of Immunology, Vol. 123, p. 426 (1979).
Samples are run in triplicate, using either 1.5 ml polypropylene capped reaction tubes, or 5.0 ml plastic uncapped tubes. Test compounds and challenge agents are prepared in HACM buffer, as described above. Fixed volume pipettes are used.
Test compound or vehicle control is added to three reaction tubes at 1.5×the final desired concentration (i.e., 400 μl of test compound per 600 μl total reaction volume). One hundred μl of cells is added to each tube and the mixture is incubated for eight minutes at room temperature, and two minutes at 37° C. before antigen or other stimulus challenge. One hundred μl of the challenge agent at 6× the final concentration is then added, and the final mixture is incubated at 37° C. for 45 minutes in a shaking water bath. This ensures that the cell preparation is constantly in suspension. The reaction is stopped by centrifugation at 2000 RPM for three minutes at 4° C. The supernate (.perspectiveto.500 μl) is poured into 2.0 ml autoanalyzer beakers and assayed for histamine by the fluorometric method. […]

[1] = Tripeptide challenge, read-out: HHB (Tripeptide), percent inhibition of histamine release
[2] = antigen challenge, read-out: HHB (antigen), percent inhibition of histamine release

| SMILES | inhibition at 33 µM [1] [%] | inhibition at 33 µM [2] [%] | HHB (antigen), percent inhibition of histamine release @ 10 (@ 10, antigen challenge) |
| --- | --- | --- | --- |
| O=C(O)c1ccccc1-c1ccccc1C(=O)Nc1ccc(OCCCc2ccccc2)cc1 [Example 2] | 96 | 12 |  |
| O=C(O)c1ccccc1-c1ccccc1C(=O)Nc1ccc(CCCc2ccccc2)cc1 [Example 16, [1,1'-Biphenyl]-2-carboxylic acid, 2'-[[[4-(3-phenylpropyl]phenyl]amino]carbonyl]-] | 84 |  |  |
| CN(C(=O)c1ccccc1-c1ccccc1C(=O)O)c1ccc(CCc2ccc(Cl)c(Cl)c2)cc1 [Example 5, [1,1'-Biphenyl]-2-carboxylic acid, 2'-[[[4-[2-(3,4-dichlorophenyl)ethyl]phenyl]methylamino]carbonyl]-] | 83 | 72 |  |
| COc1ccc(CCc2ccc(NC(=O)c3ccccc3-c3ccccc3C(=O)O)cc2)cc1OC [Example 7, [1,1'-Biphenyl]-2-carboxylic acid, 2'-[[[4-[2-(3,4-dimethoxyphenyl)ethyl]phenyl]amino]carbonyl]-] | 93 | -5 |  |
| O=C(O)c1ccccc1-c1ccccc1C(=O)Nc1ccc(CCCCc2ccccc2)cc1 [Example 19, [1,1'-Biphenyl]-2-carboxylic acid, 2'-[[[4-(4-phenylbutyl)phenyl]amino]carbonyl]-] | 90 | 59 |  |
| O=C(O)c1ccccc1-c1ccccc1C(=O)Nc1ccc(CCc2ccc(Cl)c(Cl)c2)cc1 [Example 3, [1,1'-Biphenyl]-2-carboxylic acid, 2'-[[[4-[2-(3,4-dichlorophenyl)ethyl]phenyl]amino]carbonyl]-] | 93 | 94 |  |
| O=C(O)c1ccccc1-c1ccccc1C(=O)Nc1ccc(CCCc2ccc(Cl)c(Cl)c2)cc1 [Example 1, [1,1'-Biphenyl]-2-carboxylic acid, 2'-[[[4-[3-(3,4-dichlorophenyl)propyl]phenyl]amino]carbonyl]-] | 72 | 72 |  |
| O=C(O)c1ccccc1-c1ccccc1C(=O)Nc1cccc(CCc2ccc(Cl)c(Cl)c2)c1 [Example 4, [1,1'-Biphenyl]-2-carboxylic acid, 2'-[[[3-[2-(3,4-dichlorophenyl)ethyl]phenyl]amino]carbonyl]-] | 97 | 101 |  |
| O=C(O)c1ccccc1-c1ccccc1C(=O)Nc1ccc(CCCCCc2ccccc2)cc1 [Example 21, [1,1'-Biphenyl]-2-carboxylic acid, 2'-[[[4-(5-phenylpentyl)phenyl]amino]carbonyl]-] | 93 | 91 |  |
| CN(C(=O)c1ccccc1-c1ccccc1C(=O)O)c1ccc(CCc2ccc(Cl)cc2)cc1 [Example 8] | 111 | 67 |  |
| O=C(O)c1ccccc1-c1ccccc1C(=O)Nc1ccc(Cc2ccc(Cl)c(Cl)c2)cc1 [Example 9] | 100 | 87 |  |
| O=C(O)c1ccccc1-c1ccccc1C(=O)Nc1ccc(CCCCc2ccc(Cl)c(Cl)c2)cc1 [Example 15, [1,1'-Biphenyl]-2-carboxylic acid, 2'-[[[4-[4-(3,4-dichlorophenyl)butyl]phenyl]amino]carbonyl]-] | -17 |  | 39 |
